Results published in patent publication US20220119354A1, “DIAMINO-SUBSTITUTED PYRIDINES AND PYRIMIDINES AS HERBICIDES” (FMC Corporation, priority 2019, published 2022).

Columns and labels:
Assay type in all cases: in vivo
[1] = system: ducksalad (Heteranthera limosa); assay: Test B flooded paddy test, ducksalad; conditions: Flood, 250 g ai/ha, applied to paddy water, 2-leaf stage, visual evaluation after 13 to 15 d
Outline: (§1)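 Pots flooded to 3 cm above the soil when treated, with test compound added straight to the water and the flood maintained. Treated plants were at the 2-leaf stage and stayed 13–15 d in greenhouse. Response versus untreated controls scored visually from 0 (no effect) to 100 (complete control).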

[2] = system: pigweed (Amaranthus retroflexus); assay: Test A preemergence, pigweed; conditions: 0 to 100 scale; for Pigweed plant response rating: 0 is no effect, 100 is complete control
Outline: (§2)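 Plants grown in a loam soil and sand blend were treated either preemergence by directed soil spray or postemergence when 2 to 10 cm tall (one- to two-leaf stage). Formulation: non-phytotoxic solvent mixture with surfactant. Greenhouse hold ~10 d, then visual injury assessment on a 0–100 scale.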

[3] = system: sedge, umbrella (small-flower umbrella sedge, Cyperus difformis); assay: Test B flooded paddy test, umbrella sedge; conditions: Flood, 250 g ai/ha, applied to paddy water, 2-leaf stage, visual evaluation after 13 to 15 d
Outline: as §1

[4] = system: barnyardgrass (Echinochloa crus-galli); assay: Test A preemergence, barnyardgrass; conditions: 0 to 100 scale; for Barnyardgrass plant response rating: 0 is no effect, 100 is complete control
Outline: as §2

[5] = system: foxtail, giant (Setaria faberii); assay: Test A postemergence, giant foxtail; conditions: 0 to 100 scale
Outline: as §2

[6] = system: ryegrass, Italian (Lolium multiflorum); assay: Test A postemergence, Italian ryegrass; conditions: 0 to 100 scale
Outline: as §2

corn (Zea mays) = assay: Test A postemergence, corn; conditions: 0 to 100 scale
Outline: as §2

kochia (Kochia scoparia) [7] = assay: Test A postemergence, kochia; conditions: 0 to 100 scale
Outline: as §2

[8] = system: ragweed (common ragweed, Ambrosia elatior); assay: Test A postemergence, ragweed; conditions: 0 to 100 scale
Outline: as §2

[9] = system: barnyardgrass (Echinochloa crus-galli); assay: Test B flooded paddy test, barnyardgrass; conditions: Flood, 250 g ai/ha, applied to paddy water, 2-leaf stage, visual evaluation after 13 to 15 d
Outline: as §1

[10] = system: barnyardgrass (Echinochloa crus-galli); assay: Test A postemergence, barnyardgrass; conditions: 0 to 100 scale
Outline: as §2

[11] = system: pigweed (Amaranthus retroflexus); assay: Test A postemergence, pigweed; conditions: 0 to 100 scale
Outline: as §2

[12] = system: galium (catchweed bedstraw, Galium aparine); assay: Test A postemergence, galium; conditions: 0 to 100 scale
Outline: as §2

[13] = system: foxtail, giant (Setaria faberii); assay: Test A preemergence, giant foxtail; conditions: 0 to 100 scale; for Foxtail, Giant plant response rating: 0 is no effect, 100 is complete control
Outline: as §2

[14] = system: blackgrass (Alopecurus myosuroides); assay: Test A postemergence, blackgrass; conditions: 0 to 100 scale
Outline: as §2

rice (Oryza sativa) = assay: Test B flooded paddy test, rice; conditions: Flood, 250 g ai/ha, applied to paddy water, 2-leaf stage, visual evaluation after 13 to 15 d
Outline: as §1

[15] = system: ragweed (common ragweed, Ambrosia elatior); assay: Test A preemergence, ragweed; conditions: 0 to 100 scale; for Ragweed plant response rating: 0 is no effect, 100 is complete control
Outline: as §2

[16] = system: wheat (Triticum aestivum); assay: Test A postemergence, wheat; conditions: 0 to 100 scale
Outline: as §2

kochia (Kochia scoparia) [17] = assay: Test A preemergence, kochia; conditions: 0 to 100 scale; for Kochia plant response rating: 0 is no effect, 100 is complete control
Outline: as §2

[18] = system: ryegrass, Italian (Lolium multiflorum); assay: Test A preemergence, Italian ryegrass; conditions: 0 to 100 scale; for Ryegrass, Italian plant response rating: 0 is no effect, 100 is complete control
Outline: as §2

[19] = 125 g ai/ha, 0 no effect, 100 complete control
[20] = 500 g ai/ha, 0 no effect, 100 complete control

Nc1nc(NC(c2coc3ccccc23)C2CC2)ncc1C(F)(F)F (racemic) [Compound 95]
Plant response rating, Ducksalad (0 to 100 scale, 0 is no effect, 100 is complete control) [1]: 55
Pigweed plant response rating ([2]; 125 g ai/ha): 90
Pigweed plant response rating ([2]; 500 g ai/ha): 100
Plant response rating, Sedge, Umbrella (0 to 100 scale, 0 is no effect, 100 is complete control) [3]: 70
Barnyardgrass plant response rating ([4]; 125 g ai/ha): 80
Barnyardgrass plant response rating ([4]; 500 g ai/ha): 100
Plant response rating, Foxtail, Giant [5, 19]: 50
Plant response rating, Foxtail, Giant [5, 20]: 90
Plant response rating, Ryegrass, Italian [6, 19]: 50
Plant response rating, Ryegrass, Italian [6, 20]: 100
Plant response rating, Corn (corn (Zea mays); [19]): 10
Plant response rating, Corn (corn (Zea mays); [20]): 30
Plant response rating, Kochia (kochia (Kochia scoparia) [7]; [19]): 80
Plant response rating, Kochia (kochia (Kochia scoparia) [7]; [20]): 90
Plant response rating, Ragweed [8, 19]: 60
Plant response rating, Ragweed [8, 20]: 80
Plant response rating, Barnyardgrass (0 to 100 scale, 0 is no effect, 100 is complete control) [9]: 35
Plant response rating, Barnyardgrass [10, 19]: 0
Plant response rating, Barnyardgrass [10, 20]: 70
Plant response rating, Pigweed [11, 19]: 100
Plant response rating, Pigweed [11, 20]: 100
Plant response rating, Galium [12, 19]: 80
Plant response rating, Galium [12, 20]: 80
Foxtail, Giant plant response rating ([13]; 125 g ai/ha): 90
Foxtail, Giant plant response rating ([13]; 500 g ai/ha): 100
Plant response rating, Blackgrass [14, 19]: 0
Plant response rating, Blackgrass [14, 20]: 70
Plant response rating, Rice (0 to 100 scale, 0 is no effect, 100 is complete control) (rice (Oryza sativa)): 0
Ragweed plant response rating ([15]; 125 g ai/ha): 50
Ragweed plant response rating ([15]; 500 g ai/ha): 100
Plant response rating, Wheat [16, 19]: 0
Plant response rating, Wheat [16, 20]: 30
Kochia plant response rating (kochia (Kochia scoparia) [17]; 125 g ai/ha): 80
Kochia plant response rating (kochia (Kochia scoparia) [17]; 500 g ai/ha): 90
Ryegrass, Italian plant response rating ([18]; 125 g ai/ha): 40
Ryegrass, Italian plant response rating ([18]; 500 g ai/ha): 60

CC(Nc1ncc(C(F)(F)F)c(N)n1)c1coc2cccc(F)c12 (racemic) [Compound 96]
Plant response rating, Ducksalad (0 to 100 scale, 0 is no effect, 100 is complete control) [1]: 0
Pigweed plant response rating ([2]; 125 g ai/ha): 70
Pigweed plant response rating ([2]; 500 g ai/ha): 90
Plant response rating, Sedge, Umbrella (0 to 100 scale, 0 is no effect, 100 is complete control) [3]: 0
Barnyardgrass plant response rating ([4]; 125 g ai/ha): 0
Barnyardgrass plant response rating ([4]; 500 g ai/ha): 90
Plant response rating, Foxtail, Giant [5, 19]: 0
Plant response rating, Foxtail, Giant [5, 20]: 60
Plant response rating, Ryegrass, Italian [6, 19]: 0
Plant response rating, Ryegrass, Italian [6, 20]: 0
Plant response rating, Corn (corn (Zea mays); [19]): 40
Plant response rating, Corn (corn (Zea mays); [20]): 60
Plant response rating, Kochia (kochia (Kochia scoparia) [7]; [19]): 20
Plant response rating, Kochia (kochia (Kochia scoparia) [7]; [20]): 90
Plant response rating, Ragweed [8, 19]: 20
Plant response rating, Ragweed [8, 20]: 80
Plant response rating, Barnyardgrass (0 to 100 scale, 0 is no effect, 100 is complete control) [9]: 0
Plant response rating, Barnyardgrass [10, 19]: 30
Plant response rating, Barnyardgrass [10, 20]: 40
Plant response rating, Pigweed [11, 19]: 60
Plant response rating, Pigweed [11, 20]: 90
Plant response rating, Galium [12, 19]: 60
Plant response rating, Galium [12, 20]: 80
Foxtail, Giant plant response rating ([13]; 125 g ai/ha): 20
Foxtail, Giant plant response rating ([13]; 500 g ai/ha): 80
Plant response rating, Blackgrass [14, 19]: 0
Plant response rating, Blackgrass [14, 20]: 30
Plant response rating, Rice (0 to 100 scale, 0 is no effect, 100 is complete control) (rice (Oryza sativa)): 0
Ragweed plant response rating ([15]; 125 g ai/ha): 50
Ragweed plant response rating ([15]; 500 g ai/ha): 70
Plant response rating, Wheat [16, 19]: 0
Plant response rating, Wheat [16, 20]: 0
Kochia plant response rating (kochia (Kochia scoparia) [17]; 125 g ai/ha): 0
Kochia plant response rating (kochia (Kochia scoparia) [17]; 500 g ai/ha): 0
Ryegrass, Italian plant response rating ([18]; 125 g ai/ha): 0
Ryegrass, Italian plant response rating ([18]; 500 g ai/ha): 50

C[C@@H](Nc1ncc(C(F)(F)F)c(N)n1)c1ccc2ccccc2c1 [Compound 1]
Plant response rating, Ducksalad (0 to 100 scale, 0 is no effect, 100 is complete control) [1]: 0
Plant response rating, Pigweed ([2]; 125 g ai/ha): 10
Plant response rating, Pigweed ([2]; 500 g ai/ha): 90
Plant response rating, Sedge, Umbrella (0 to 100 scale, 0 is no effect, 100 is complete control) [3]: 0
Plant response rating, Barnyardgrass ([4]; 125 g ai/ha): 0
Plant response rating, Barnyardgrass ([4]; 500 g ai/ha): 0
Plant response rating, Foxtail, Giant ([5]; 125 g ai/ha): 0
Plant response rating, Foxtail, Giant ([5]; 500 g ai/ha): 0
Plant response rating, Ryegrass, Italian ([6]; 125 g ai/ha): 0
Plant response rating, Ryegrass, Italian ([6]; 500 g ai/ha): 20
Plant response rating, Corn (corn (Zea mays); 125 g ai/ha): 0
Plant response rating, Corn (corn (Zea mays); 500 g ai/ha): 0
Plant response rating, Kochia (kochia (Kochia scoparia) [7]; 125 g ai/ha): 0
Plant response rating, Kochia (kochia (Kochia scoparia) [7]; 500 g ai/ha): 50
Plant response rating, Ragweed ([8]; 125 g ai/ha): 0
Plant response rating, Ragweed ([8]; 500 g ai/ha): 50
Plant response rating, Barnyardgrass (0 to 100 scale, 0 is no effect, 100 is complete control) [9]: 0
Plant response rating, Barnyardgrass ([10]; 125 g ai/ha): 0
Plant response rating, Barnyardgrass ([10]; 500 g ai/ha): 0
Plant response rating, Pigweed ([11]; 125 g ai/ha): 80
Plant response rating, Pigweed ([11]; 500 g ai/ha): 100
Plant response rating, Galium ([12]; 125 g ai/ha): 30
Plant response rating, Galium ([12]; 500 g ai/ha): 70
Plant response rating, Foxtail, Giant ([13]; 125 g ai/ha): 0
Plant response rating, Foxtail, Giant ([13]; 500 g ai/ha): 30
Plant response rating, Blackgrass ([14]; 125 g ai/ha): 0
Plant response rating, Blackgrass ([14]; 500 g ai/ha): 0
Plant response rating, Rice (0 to 100 scale, 0 is no effect, 100 is complete control) (rice (Oryza sativa)): 0
Plant response rating, Ragweed ([15]; 125 g ai/ha): 0
Plant response rating, Ragweed ([15]; 500 g ai/ha): 0
Plant response rating, Wheat ([16]; 125 g ai/ha): 0
Plant response rating, Wheat ([16]; 500 g ai/ha): 0
Plant response rating, Kochia (kochia (Kochia scoparia) [17]; 125 g ai/ha): 0
Plant response rating, Kochia (kochia (Kochia scoparia) [17]; 500 g ai/ha): 10
Plant response rating, Ryegrass, Italian ([18]; 125 g ai/ha): 0
Plant response rating, Ryegrass, Italian ([18]; 500 g ai/ha): 0
